The nature of data set [1]: Cytotoxicity against human THP1-Dual cells assessed as reduction in cell viability incubated for 24 hrs by CCK-8 assay. Format: toxicity, cell-based.
The target in data set [2] is Cyclic GMP-AMP synthase (Homo sapiens, UniProt Q8N884). Kind of data set: Inhibition of human cGAS expressed in THP1-Dual cells transfected with HT-DNA assessed as suppression of lipofectamine 2000:ds-DNA complex induced activation of cGAS incubated for 1 hr by Quanti-luc reagent based assay. It is filed as cell-based.
Chain of Cyclic GMP-AMP synthase (Homo sapiens, UniProt Q8N884) (Q8N884 whole entry): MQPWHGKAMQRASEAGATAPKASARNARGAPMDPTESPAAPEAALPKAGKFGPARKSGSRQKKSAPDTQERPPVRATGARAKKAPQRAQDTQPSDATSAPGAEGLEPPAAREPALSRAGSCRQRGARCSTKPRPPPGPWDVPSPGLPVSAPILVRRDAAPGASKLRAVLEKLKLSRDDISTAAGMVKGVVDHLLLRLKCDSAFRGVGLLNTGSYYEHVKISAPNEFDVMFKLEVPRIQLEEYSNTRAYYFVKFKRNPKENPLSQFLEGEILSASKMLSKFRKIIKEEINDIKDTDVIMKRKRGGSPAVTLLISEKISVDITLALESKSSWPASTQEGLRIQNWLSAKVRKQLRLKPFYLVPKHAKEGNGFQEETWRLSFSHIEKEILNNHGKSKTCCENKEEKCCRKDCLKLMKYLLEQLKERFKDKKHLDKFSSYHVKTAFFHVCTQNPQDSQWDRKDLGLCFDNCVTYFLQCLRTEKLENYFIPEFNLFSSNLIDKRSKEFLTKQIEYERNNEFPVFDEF
Data set [3] in a line: Cytotoxicity against mouse RAW-Lucia ISG cells assessed as reduction in cell viability incubated for 24 hrs by CCK-8 assay. It is filed as toxicity, cell-based. For orientation: Tetrazolium dyes change colour on reduction, which living cells bring about.
Data set [4] addresses Cyclic GMP-AMP synthase (Mus musculus, UniProt Q8C6L5). Kind of data set: Inhibition of mouse cGAS expressed in RAW-Lucia ISG transfected with HT-DNA assessed as suppression of lipofectamine 2000:ds-DNA complex induced activation of cGAS incubated for 1 hr by Quanti-luc reagent based assay. It is filed as cell-based.

pIC50: −log10 of the molar value.

Drawing on ChEMBL document CHEMBL5038595, “Synthesis and Pharmacological Evaluation of Tetrahydro-γ-carboline Derivatives as Potent Anti-inflammatory Agents Targeting Cyclic GMP-AMP Synthase” (J Med Chem, 2021), this text covers CC50 and IC50 for 36 molecules.

Chain of Cyclic GMP-AMP synthase (Mus musculus, UniProt Q8C6L5) (Q8C6L5 whole entry): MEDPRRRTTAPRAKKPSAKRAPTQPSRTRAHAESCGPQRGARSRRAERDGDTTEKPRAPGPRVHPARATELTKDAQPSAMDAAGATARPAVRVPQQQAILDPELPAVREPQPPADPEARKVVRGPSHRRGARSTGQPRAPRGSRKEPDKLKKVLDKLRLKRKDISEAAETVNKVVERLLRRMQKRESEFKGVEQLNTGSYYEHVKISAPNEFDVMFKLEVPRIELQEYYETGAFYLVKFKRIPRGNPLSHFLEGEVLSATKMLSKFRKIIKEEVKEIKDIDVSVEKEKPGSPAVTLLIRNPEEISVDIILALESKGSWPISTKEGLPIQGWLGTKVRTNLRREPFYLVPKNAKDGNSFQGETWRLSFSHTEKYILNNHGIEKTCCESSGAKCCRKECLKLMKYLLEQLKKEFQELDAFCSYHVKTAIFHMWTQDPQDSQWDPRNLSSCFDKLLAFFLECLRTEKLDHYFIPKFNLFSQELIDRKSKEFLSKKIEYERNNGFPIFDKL

Consider `COc1ccc(OC)c2c1NC13CN(C(=O)CO)CCC21Nc1c3ccc(Cl)c1Cl` (stereo not given), for which the 50% cytotoxic concentration (CC50) at 24 h in data set [1] and in data set [3] was more than 50 µM in each case. In addition, the pIC50 is less than 4.30 in data set [2] and 4.70 in data set [4].

Regarding `CNCC(=O)N1CCc2[nH]c3c(Cl)c(Cl)cc(-c4ccn(C)n4)c3c2C1`, the CC50 at 24 h was 42.1 µM in data set [1] and more than 50 µM in data set [3]. Further, the figures for the pIC50 in data set [2] and in data set [4] were 5.20 and 4.66, respectively.

Take `O=C(CO)N1CCC2=Nc3c(ccc(Cl)c3Cl)C2(c2c[nH]c3cc(F)cc(F)c23)C1` (stereo not given): the CC50 at 24 h in data set [1] came to 10.4 µM. In data set [2], the pIC50 was 4.89.

Consider `Cn1ccc(-c2cc(Cl)c(Cl)c3[nH]c4c(c23)CN(C(=O)CNC(=O)[C@@H](N)Cc2cc[nH]n2)CC4)n1`, for which the CC50 at 24 h in data set [1] was more than 50 µM. Moreover, in data set [2], the pIC50 was 4.99.

In the case of `Cn1ccc(-c2cc(Cl)c(Cl)c3[nH]c4c(c23)CN(C(=O)CNC(=O)C2CC(F)(F)CN2)CC4)n1` (single isomer, unassigned), the CC50 at 24 h in data set [1] was more than 50 µM; in data set [3] it was 36.5 µM. For the same molecule, the figures for the pIC50 in data set [2] and in data set [4] were 5.19 and 4.76, respectively.

In the case of `Cn1ccc(-c2cc(Cl)c(Cl)c3[nH]c4c(c23)CN(C(=O)[C@@H]2CCCN2)CC4)n1`, the half-maximal cytotoxic concentration (CC50) at 24 h in data set [1] came to 49.1 µM. The pIC50 in data set [2] was 4.65.

On to `CC(=O)NCC(=O)N1CCc2[nH]c3c(Cl)c(Cl)cc(-c4ccn(C)n4)c3c2C1`, for which, in data set [1], the CC50 at 24 h was more than 50 µM. For the same molecule, the pIC50 in data set [2] is 4.42.

Turning to `COc1ccccc1NC12CN(C(=O)CO)CCC1=Nc1c2ccc(Cl)c1Cl` (stereo not given), the CC50 at 24 h in data set [1] and in data set [3] was more than 50 µM in each case. In addition, the negative logarithm of the IC50 (pIC50) was less than 4.30 in data set [2] and 4.64 in data set [4].

Consider `CN(C)CC(=O)N1CCc2[nH]c3c(Cl)c(Cl)cc(-c4ccn(C)n4)c3c2C1`, for which the CC50 at 24 h in data set [1] was 30.4 µM. The pIC50 in data set [2] is 4.68.

Regarding `COc1ccc2c(C34CN(C(=O)CO)CCC3=Nc3c4ccc(Cl)c3Cl)c[nH]c2c1` (stereo not given), the CC50 at 24 h in data set [1] was more than 50 µM. In data set [2], the pIC50 was 4.95.

`Cn1ccc(-c2cc(Cl)c(Cl)c3[nH]c4c(c23)CN(C(=O)CNC(=O)C(C)(C)NC(=O)OC(C)(C)C)CC4)n1`: the CC50 at 24 h in data set [1] was 49.2 µM. For the same molecule, the pIC50 in data set [2] was 5.09.

In the case of `Cn1ccc(-c2cc(Cl)c(Cl)c3[nH]c4c(c23)CN(C(=O)CNC(=O)[C@@H](N)O)CC4)n1`, the CC50 at 24 h in data set [1] is 27.7 µM. Also, in data set [2], the pIC50 is 4.96.

With `CC(=O)OCC(=O)N1CCC2Nc3c(ccc(Cl)c3Cl)C2(c2c[nH]c3ccccc23)C1` (stereo not given), the CC50 at 24 h in data set [1] is 32.9 µM; in data set [3], more than 50 µM. The pIC50 is 5.26 in data set [2] and 5.06 in data set [4].

Consider `CC(=O)OCC(=O)N1CCC2=Nc3c(ccc(Cl)c3Cl)C2(c2c[nH]c3ccccc23)C1` (stereo not given), for which the CC50 at 24 h in data set [1] was 50 µM; in data set [3] it was more than 50 µM. The pIC50 in data set [2] is 5.20; in data set [4], 5.01.

Regarding `CC(=O)OCC(=O)N1CCC2=Nc3c(ccc(Cl)c3Cl)C2(Nc2cc(C(F)(F)F)cc(C(F)(F)F)c2)C1` (stereo not given), the CC50 at 24 h was found to be 11 µM in data set [1] and 7.88 µM in data set [3]. For the same molecule, the pIC50 was 5.49 in data set [2] and 5.10 in data set [4].

`Cn1ccc(-c2cc(Cl)c(Cl)c3[nH]c4c(c23)CN(C(=O)CNC(=O)CN2CCNCC2)CC4)n1`: the CC50 at 24 h in data set [1] came out at 37.7 µM. For the same molecule, the pIC50 in data set [2] is 5.10.

Take `Cc1cc(CC(=O)NCC(=O)N2CCc3[nH]c4c(Cl)c(Cl)cc(-c5ccn(C)n5)c4c3C2)no1`: the CC50 at 24 h in data set [1] and in data set [3] was more than 50 µM throughout. Besides, the figures for the pIC50 in data set [2] and in data set [4] were 5.02 and 5.04, respectively.

For `Cn1ccc(-c2cc(Cl)c(Cl)c3[nH]c4c(c23)CN(C(=O)CNC(=O)C2(N)CC2)CC4)n1`, the CC50 at 24 h in data set [1] was more than 50 µM. Also, the pIC50 in data set [2] is 4.87.

Regarding `CC(=O)OCC(=O)N1CCC2=Nc3c(ccc(Cl)c3Cl)C2(Nc2cccc(Cl)c2C=O)C1` (stereo not given), the CC50 at 24 h in data set [1] is 30.8 µM; in data set [3] it was more than 50 µM. For the same molecule, the pIC50 was 5.54 in data set [2] and 4.95 in data set [4].

Turning to `O=C(CO)N1CC=C2Nc3c(ccc(Cl)c3Cl)C2(Cl)C1` (stereo not given), the CC50 at 24 h in data set [1] was more than 50 µM. Besides, the pIC50 in data set [2] was less than 4.30.

Regarding `O=C(CO)N1C[C@H]2[C@H]3O[C@]4(Nc5ccc(Cl)cc53)c3ccc(Cl)c(Cl)c3N[C@]24C1` (racemic), the CC50 at 24 h in data set [1] and in data set [3] was more than 50 µM in each case. The negative-log IC50 (pIC50) in data set [2] and in data set [4] was 4.42 each time.

With `CC(=O)OCC(=O)N1CCC2=Nc3c(ccc(Cl)c3Cl)C2(Nc2ccccc2C=O)C1` (stereo not given), the CC50 at 24 h in data set [1] was more than 50 µM. Besides, the pIC50 in data set [2] is 5.02.

With `CCOC(=O)c1ccc(NC23CN(C(=O)CO)CCC2=Nc2c3ccc(Cl)c2Cl)cc1` (stereo not given), the CC50 at 24 h in data set [1] is 52.5 µM. Besides, the negative logarithm of the IC50 (pIC50) in data set [2] is 4.40.

As for `O=C(CO)N1C[C@H]2[C@H]3O[C@]4(Nc5ccccc53)c3ccc(Cl)c(Cl)c3N[C@]24C1` (racemic), the CC50 at 24 h in data set [1] is more than 50 µM. The negative logarithm of the IC50 (pIC50) in data set [2] is less than 4.30.

For the molecule `Cn1ccc(-c2cc(Cl)c(Cl)c3[nH]c4c(c23)CN(C(=O)CNC(=O)c2cccc(-c3noc(C(F)(F)F)n3)c2)CC4)n1`, the CC50 at 24 h in data set [1] and in data set [3] was more than 50 µM each time. Besides, the values for the pIC50 in data set [2] and in data set [4] were 5.00 and 5.12, respectively.

On to `Cn1ccc(-c2cc(Cl)c(Cl)c3[nH]c4c(c23)CN(C(=O)CNC(=O)Cc2ccco2)CC4)n1`, for which the CC50 at 24 h worked out at 47.3 µM in data set [1] and 49.2 µM in data set [3]. Also, the pIC50 in data set [2] is 5.14; in data set [4], 5.11.

For `Cn1ccc(-c2cc(Cl)c(Cl)c3[nH]c4c(c23)CN(C(=O)CNC(=O)C(C)(C)N)CC4)n1`, in data set [1], the CC50 at 24 h turned out to be 12.3 µM. In data set [2], the pIC50 was 4.98.

As for `Cn1ccc(-c2cc(Cl)c(Cl)c3[nH]c4c(c23)CN(C(=O)C2CC(OC(F)F)C2)CC4)n1` (stereo not given), the 50% cytotoxic concentration (CC50) at 24 h in data set [1] came to 20.2 µM. The pIC50 in data set [2] was 4.69.

Consider `Cn1ccc(-c2cc(Cl)c(Cl)c3[nH]c4c(c23)CN(C(=O)CNC(=O)C2=C[C@H](O)[C@H](O)[C@@H](O)C2)CC4)n1`, for which the CC50 at 24 h in data set [1] is more than 50 µM. Moreover, the pIC50 in data set [2] was less than 4.30.

Regarding `Cc1ccc(OC(F)(F)C(=O)NCC(=O)N2CCc3[nH]c4c(Cl)c(Cl)cc(-c5ccn(C)n5)c4c3C2)cc1`, the CC50 at 24 h in data set [1] and in data set [3] was more than 50 µM throughout. The pIC50 in data set [2] was 4.81; in data set [4], 5.17.

For the molecule `Cn1ccc(-c2cc(Cl)c(Cl)c3[nH]c4c(c23)CN(C(=O)CN2CCOCC2)CC4)n1`, the CC50 at 24 h in data set [1] is more than 50 µM. Also, the pIC50 in data set [2] is less than 4.30.

In the case of `O=C(CO)N1CCC2=Nc3c(ccc(Cl)c3Cl)C2(c2c[nH]c3cc(Cl)ccc23)C1` (stereo not given), the values for the CC50 at 24 h in data set [1] and in data set [3] were 24.4 µM and 10 µM, respectively. Further, the pIC50 in data set [2] was 5.07; in data set [4], 4.66.

For the molecule `Cn1ccc(-c2cc(Cl)c(Cl)c3[nH]c4c(c23)CN(C(=O)C2(N)COC2)CC4)n1`, in data set [1], the CC50 at 24 h is more than 50 µM. The pIC50 in data set [2] is less than 4.30.

Take `Cn1ccc(-c2cc(Cl)c(Cl)c3[nH]c4c(c23)CN(C(=O)C2CC(O)C2)CC4)n1` (stereo not given): the CC50 at 24 h in data set [1] is more than 50 µM. Besides, the pIC50 in data set [2] was less than 4.30.

Take `O=C(CO)N1CCC2=Nc3c(ccc(Cl)c3Cl)C2(c2c[nH]c3cc(F)ccc23)C1` (stereo not given): in data set [1], the CC50 at 24 h worked out at 32.1 µM. Moreover, in data set [2], the pIC50 is 4.85.

As for `O=C(CO)N1CCC2=Nc3c(ccc(Cl)c3Cl)C2(Nc2cc(F)cc(F)c2)C1` (stereo not given), the CC50 at 24 h in data set [1] was more than 50 µM. In addition, in data set [2], the pIC50 was less than 4.30.

By CC50 is commonly meant the concentration that lowers cell viability or growth by half. In general, pIC50 refers to the negative decadic logarithm of the IC50, by convention in mol/L.
